Experimental data taken from patent US20220088195A1, “Prevention or mitigation of T-cell bispecific antibody-related adverse effects” (Hoffmann-La Roche Inc., priority 2020, published 2022).

Assays:
Format in all cases: cell-based, human
[1] = system: IFN-γ, IL-2 and TNF-α release; experiment: Cytokine release in supernatants of the CEA-TCB killing assay (Luminex, 96 hours); settings: dasatinib above 12.5 nM, 1 nM CEA-TCB
Description: Cytokine release. Supernatant were collected at the endpoint (96 hours) of the assay in FIG. 1 and cytokines ((A) IFNγ, (B) IL-2, (C) TNF-α) measured by multiplex cytokine analysis (Luminex). 1 nM CEA-TCB, 1 donor.

CD4+ and CD8+ T cells = experiment: T cell activation (CD25, CD69 by FACS) in SKM-1 killing assay with HLA-A2 WT-1-TCB, dasatinib added after 24 hours; settings: 48 hours; 100 nM dasatinib added at 24h; 10 nM HLA-A2 WT-1-TCB
Description: FIG. 3. In vitro killing assay set-up and timelines. PBMCs were co-cultured with SKM-1 target cells (E:T=10:1) and 10 nM HLA-A2 WT-1-TCB. Dasatinib (100 nM) was added after 24 hours of activation. PBMCs were labelled with CellTrace™ Violet (CTV) to allow T cell proliferation assessment.
FIG. 4. T cell activation. CD25 and CD69 expression on CD4+ and CD8+ T cells was measured by FACS after 24h and 48h of activation in the presence and absence of dasatinib, according to the assay of FIG. 3. (A) CD25 expression on CD8+ T cells, (B) CD25 expression on CD4+ T-cells, (C) CD69 expression on CD8+ T cells, (D) CD69 expression on CD4+ T cells.
To evaluate if dasatinib could act as a rapid and potent inhibitor of activated T cells, we first stimulated PBMCs on SKM-1 tumor cells with HLA-A2 WT-1-TCB for 24 hours. We then supplemented these activated effector cells with 100 nM dasatinib (FIG. 3).
Upon addition of 100 nM dasatinib at 24h, expression of early activation marker CD69 and late activation marker CD25 on CD4+ and CD8+ T cells at 48 hours was found at an intermediate level between expression measured at 24 hours and expression measured at 48 hours in samples with no dasatinib treatment (FIG. 4).

[2] = system: IFN-γ, IL-2 and TNF-α release; experiment: Cytokine release after second stimulation with HLA-A2 WT-1-TCB in the SKM-1 assay (Luminex); settings: 100 nM dasatinib, versus positive control ON/ON
Description: FIG. 12. Cytokine release after the second stimulation with HLA-A2 WT-1-TCB with and without dasatinib. Supernatants from the killing assay of FIG. 8 were collected 24 hours after the second stimulation and IFN-γ (A), TNF-α (B) and IL-2 (C) were measured with a multiplex cytokine kit (Luminex technology). n=3 donors.
To assess whether dasatinib can efficiently prevent TCB-mediated target cell killing by activated T cells, we set up an in vitro killing assay with two stimulation steps, mimicking an ON/OFF switch. During the first stimulation, PBMCs were activated on carboxyfluorescein succinimidyl ester (CFSE)-labelled SKM-1 tumors cells with HLA-A2 WT-1-TCB in the absence of dasatinib (ON). During the second stimulation, activated PBMCs together with dead CFSE labelled SKM-1 tumors cells were washed and re-stimulated by HLA-A2 WT-1-TCB on fresh CTV labelled SKM-1 tumor cells in the presence of 100 nM dasatinib (OFF). The use of CFSE and CTV labelled SKM-1 tumors allowed to differentiate tumor cells used for first and second stimulation by flow cytometry (FIG. 8). […] Consistently, T cells were activated and functional before the addition of dasatinib in the system. […]

[3] = system: IFN-γ, IL-2 and TNF-α release; experiment: Cytokine levels in supernatants of the reversibility assay (Luminex)
Description: FIG. 18. […] Cytokines ((A) IFN-γ, (B) IL-2, (C) TNF-α) were measured with a multiplex cytokine kit (Luminex technology). 1 donor.
FIG. 20. Cytokine levels in the supernatants of the assay after first stimulation in the absence of 25 nM dasatinib and after second stimulation in the presence of 25 nM dasatinib, in the assay of FIG. 16 (“ON/OFF”). Cytokines ((A) IFN-γ, (B) IL-2, (C) TNF-α) were measured with a multiplex cytokine kit (Luminex technology). 1 donor.
FIG. 22. Cytokine release. Supernatants were collected after first and second stimulation in the assay of FIG. 16 and cytokines ((A) TNF-α, (B) IFN-γ, (C) IL-2) measured using a multiplex cytokine kit (Luminex).
We then verified if dasatinib's effect is reversible upon its removal. Therefore we set-up a killing assay with two and three stimulations in the presence and absence of dasatinib and followed the killing kinetics using an Incucyte® system (FIG. 16). After each stimulation, effector cells were washed and re-stimulated on fresh MKN45 NLR target cells with 1 nM CEA TCB in the presence and absence of dasatinib allowing to mimic OFF/ON switch and ON/OFF/ON switch.
Lastly, we evaluated if the effect of dasatinib was reversible on activated T cells. Consequently, we supplemented the media with 25 nM dasatinib upon the second stimulation with 1 nM CEA-TCB to prevent killing from activated T cells and then removed the dasatinib upon third stimulation with 1 nM CEA-TCB to verify if killing would be restored.
We were curious to see if low doses of dasatinib could prevent cytokine release while minimally affecting TCB-efficacy upon first stimulation. In killing assays as described in FIG. 16, the cytokine levels upon first treatment with 1 nM CEA-TCB in the presence of 6.25 nM and 12.5 nM dasatinib and upon second treatment with 1 nM CEA-TCB in the absence of dasatinib were measured in the supernatants.

SMILES: Cc1nc(Nc2ncc(C(=O)Nc3c(C)cccc3Cl)s2)cc(N2CCN(CCO)CC2)n1 [dasatinib, N-(2-chloro-6-methylphenyl)-2-[[6-[4-(2-hydroxyethyl)-1-piperazinyl]-2-methyl-4-pyrimidinyl]amino]-5-thiazole carboxamide monohydrate]
- release of IFN-γ, IL-2 and TNF-α [1]: prevented the release
- CD25 and CD69 expression on CD4+ and CD8+ T cells (CD4+ and CD8+ T cells): rapidly blocked the expression of phenotypic activation markers
- IFN-γ, IL-2 and TNF-α release upon re-stimulation [2]: fully inhibited
- release of IFN-γ, IL-2 and TNF-α during first stimulation ([3]; 6.25 nM and 12.5 nM dasatinib, 1 nM CEA-TCB): lowered the release
- release of IFN-γ, IL-2 and TNF-α (ON/OFF) ([3]; 25 nM dasatinib upon second stimulation, 1 nM CEA-TCB): prevented the release
- T-cell derived cytokine release (IFN-γ, IL-2, TNF-α) after first stimulation ([3]; 25 nM dasatinib, 1 nM CEA-TCB): full inhibition
- levels of TNF-α, IL-2 and IFN-γ during second stimulation ([3]; dasatinib (6.25 nM, 12.5 nM) removed): remained low
- release of IFN-γ, IL-2 and TNF-α after removal of dasatinib and restimulation ([3]; removal of 25 nM dasatinib, restimulation with 1 nM CEA-TCB): T cell functionality was restored upon dasatinib removal
